Data taken from ChEMBL document CHEMBL1153072, “Synthesis and structure-activity relationship of dicationic diaryl ethers as novel potent anti-MRSA and anti-VRE agents” (2009).
≈ marks a conversion by molar mass, not a printed value.

Assays:
Assay type in all cases: functional
Staphylococcus aureus [1] = test: Antibacterial activity against methicillin-resistant Staphylococcus aureus ATCC 33591
Bacteroides fragilis = test: Antibacterial activity against […] ATCC 23745
Streptococcus pneumoniae = test: Antibacterial activity against Streptococcus pneumoniae ATCC 6301
Staphylococcus aureus [2] = test: Antibacterial activity against multidrug resistant Staphylococcus aureus BAA-39
Bacillus cereus = test: Antibacterial activity against Bacillus cereus ATCC 11778
Clostridium perfringens = test: Antibacterial activity against Clostridium perfringens ATCC 10388
Bacillus subtilis = test: Antibacterial activity against Bacillus subtilis ATCC 23857
[3] = system: Staphylococcus epidermidis; test: Antibacterial activity against methicillin-resistant Staphylococcus epidermidis ATCC 51625
Staphylococcus aureus [4] = test: Antibacterial activity against Staphylococcus aureus ATCC 29213
Enterococcus faecalis = test: Antibacterial activity against vancomycin-resistant Enterococcus faecalis ATCC 51575
Enterococcus faecium = test: Antibacterial activity against vancomycin-resistant Enterococcus faecium ATCC 700221
[5] = system: Staphylococcus epidermidis; test: Antibacterial activity against Staphylococcus epidermidis ATCC 12228
Candida albicans = test: Antifungal activity against Candida albicans ATCC 90028

Row | Structure (SMILES) | MIC (Staphylococcus aureus [1]) [µg/mL] | MIC (Bacteroides fragilis) [µg/mL] | MIC (Streptococcus pneumoniae) [µg/mL] | MIC (Staphylococcus aureus [2]) [µg/mL] | MIC (Bacillus cereus) [µg/mL] | MIC (Clostridium perfringens) [µg/mL] | MIC (Bacillus subtilis) [µg/mL] | MIC [3] [µg/mL] | MIC (Staphylococcus aureus [4]) [µg/mL] | MIC (Enterococcus faecalis) [µg/mL] | MIC (Enterococcus faecium) [µg/mL] | MIC [5] [µg/mL] | MIC (Candida albicans) [µg/mL]
1 | CC1CCN(C(=N)c2ccc3[nH]c(-c4ccc(Oc5ccc(-c6nc7cc(C(=N)N8CCC(C)CC8)ccc7[nH]6)cc5)cc4)nc3c2)CC1 | 0.25 (≈ 0.384 µM) | 4 (≈ 6.15 µM) | 0.12 (≈ 0.184 µM) | 0.25 (≈ 0.384 µM) | < 0.06 | 1 (≈ 1.54 µM) | 0.12 (≈ 0.184 µM) | 0.12 (≈ 0.184 µM) | 0.25 (≈ 0.384 µM) | 0.5 (≈ 0.768 µM) | 0.25 (≈ 0.384 µM) | 0.12 (≈ 0.184 µM) | 4 (≈ 6.15 µM)
2 | CN[C@H](CC(C)C)C(=O)N[C@H]1C(=O)N[C@@H](CC(N)=O)C(=O)N[C@H]2C(=O)N[C@H]3C(=O)N[C@H](C(=O)N[C@H](C(=O)O)c4cc(O)cc(O)c4-c4cc3ccc4O)[C@H](O)c3ccc(c(Cl)c3)Oc3cc2cc(c3O[C@@H]2O[C@H](CO)[C@@H](O)[C@H](O)[C@H]2O[C@H]2C[C@](C)(N)[C@H](O)[C@H](C)O2)Oc2ccc(cc2Cl)[C@H]1O [VANCOMYCIN] |  | 4 (≈ 2.76 µM) | 1 (≈ 0.69 µM) |  | ≤ 1 | 0.12 (≈ 0.0828 µM) | 0.12 (≈ 0.0828 µM) |  |  | > 64 | > 64 |  | > 32
3 | N=C(c1ccc2[nH]c(-c3ccc(Oc4ccc(-c5nc6cc(C(=N)N7CCCCC7)ccc6[nH]5)cc4)cc3)nc2c1)N1CCCCC1 | 0.12 (≈ 0.193 µM) | 2 (≈ 3.21 µM) | < 0.06 | 0.5 (≈ 0.803 µM) | 0.25 (≈ 0.401 µM) | 0.25 (≈ 0.401 µM) | < 0.06 | 0.12 (≈ 0.193 µM) | 0.25 (≈ 0.401 µM) | 0.25 (≈ 0.401 µM) | 0.12 (≈ 0.193 µM) | < 0.06 | 8 (≈ 12.8 µM)
4 | COc1cc(Oc2ccc(-c3nc4cc(C(=N)NC(C)C)ccc4[nH]3)cc2)ccc1-c1nc2cc(C(=N)NC(C)C)ccc2[nH]1 | 0.25 (≈ 0.416 µM) | > 32 | ≤ 0.06 | 0.5 (≈ 0.832 µM) | 0.12 (≈ 0.2 µM) | 0.25 (≈ 0.416 µM) | ≤ 0.06 | 0.12 (≈ 0.2 µM) | 0.5 (≈ 0.832 µM) | 0.5 (≈ 0.832 µM) | ≤ 0.06 | ≤ 0.06 | 2 (≈ 3.33 µM)
5 | O=C(O)c1cn(C2CC2)c2cc(N3CCNCC3)c(F)cc2c1=O [CIPROFLOXACIN] | ≤ 0.12 | 0.5 (≈ 1.51 µM) |  | 8 (≈ 24.1 µM) | ≤ 0.12 |  | ≤ 0.12 | ≤ 0.12 | 0.5 (≈ 1.51 µM) | 0.5 (≈ 1.51 µM) | > 64 | ≤ 0.12 | 
6 | CC(C)NC(=N)c1ccc2[nH]c(-c3ccc(Oc4ccc(-c5nc6cc(C(=N)NC(C)C)ccc6[nH]5)c(C(F)(F)F)c4)cc3)nc2c1 | 0.25 (≈ 0.391 µM) | 8 (≈ 12.5 µM) | ≤ 0.06 | 0.5 (≈ 0.783 µM) | 0.12 (≈ 0.188 µM) | 0.25 (≈ 0.391 µM) | ≤ 0.06 | 0.12 (≈ 0.188 µM) | 0.5 (≈ 0.783 µM) | 0.12 (≈ 0.188 µM) | ≤ 0.06 | ≤ 0.06 | 4 (≈ 6.26 µM)
7 | CCC(C)NC(=N)c1ccc2[nH]c(-c3ccc(Oc4ccc(-c5nc6cc(C(=N)NC(C)CC)ccc6[nH]5)cc4)cc3)nc2c1 (stereo not given) | 0.25 (≈ 0.418 µM) | 16 (≈ 26.7 µM) | < 0.06 | 0.5 (≈ 0.835 µM) | < 0.06 | 0.5 (≈ 0.835 µM) | < 0.06 | 0.12 (≈ 0.2 µM) | 0.5 (≈ 0.835 µM) | 0.25 (≈ 0.418 µM) | < 0.06 | 0.12 (≈ 0.2 µM) | 2 (≈ 3.34 µM)
8 | CCC(CC)NC(=N)c1ccc2[nH]c(-c3ccc(Oc4ccc(-c5nc6cc(C(=N)NC(CC)CC)ccc6[nH]5)cc4)cc3)nc2c1 | 0.25 (≈ 0.399 µM) | 4 (≈ 6.38 µM) | < 0.06 | 0.5 (≈ 0.798 µM) | 0.5 (≈ 0.798 µM) | 0.5 (≈ 0.798 µM) | 0.12 (≈ 0.191 µM) | 0.25 (≈ 0.399 µM) | 0.25 (≈ 0.399 µM) | 0.5 (≈ 0.798 µM) | < 0.06 | 0.12 (≈ 0.191 µM) | 4 (≈ 6.38 µM)
9 | N=C(c1ccc2[nH]c(-c3ccc(Oc4ccc(-c5nc6cc(C(=N)N7CCOCC7)ccc6[nH]5)cc4)cc3)nc2c1)N1CCOCC1 | 0.5 (≈ 0.798 µM) | 8 (≈ 12.8 µM) | 0.5 (≈ 0.798 µM) | 0.5 (≈ 0.798 µM) | 0.12 (≈ 0.191 µM) | 2 (≈ 3.19 µM) | 0.5 (≈ 0.798 µM) | 0.5 (≈ 0.798 µM) | 1 (≈ 1.6 µM) | 0.5 (≈ 0.798 µM) | 0.5 (≈ 0.798 µM) | 0.25 (≈ 0.399 µM) | 16 (≈ 25.5 µM)
10 | CCN1CCN(C(=N)c2ccc3[nH]c(-c4ccc(Oc5ccc(-c6nc7cc(C(=N)N8CCN(CC)CC8)ccc7[nH]6)cc5)cc4)nc3c2)CC1 | 1 (≈ 1.47 µM) | 16 (≈ 23.5 µM) | 0.5 (≈ 0.734 µM) | 1 (≈ 1.47 µM) | 0.5 (≈ 0.734 µM) | 16 (≈ 23.5 µM) | 0.5 (≈ 0.734 µM) | 0.5 (≈ 0.734 µM) | 1 (≈ 1.47 µM) | 1 (≈ 1.47 µM) | 1 (≈ 1.47 µM) | 0.5 (≈ 0.734 µM) | 32 (≈ 47 µM)
11 | CC(C)NC(=N)c1ccc2[nH]c(-c3ccc(Oc4ccc(-c5nc6cc(C(=N)NC(C)C)ccc6[nH]5)cc4)cc3)nc2c1 | 0.12 (≈ 0.21 µM) | 2 (≈ 3.5 µM) | < 0.06 | 0.5 (≈ 0.876 µM) | < 0.06 | 0.5 (≈ 0.876 µM) | < 0.06 | < 0.06 | 0.25 (≈ 0.438 µM) | 0.12 (≈ 0.21 µM) | < 0.06 | < 0.06 | 1 (≈ 1.75 µM)
12 | CC1CC(C)CN(C(=N)c2ccc3[nH]c(-c4ccc(Oc5ccc(-c6nc7cc(C(=N)N8CC(C)CC(C)C8)ccc7[nH]6)cc5)cc4)nc3c2)C1 (stereo not given) | 0.25 (≈ 0.368 µM) | 4 (≈ 5.89 µM) | 0.5 (≈ 0.737 µM) | 0.5 (≈ 0.737 µM) | 1 (≈ 1.47 µM) | 2 (≈ 2.95 µM) | 0.25 (≈ 0.368 µM) | 0.5 (≈ 0.737 µM) | 0.5 (≈ 0.737 µM) | 1 (≈ 1.47 µM) | 0.5 (≈ 0.737 µM) | 0.25 (≈ 0.368 µM) | 8 (≈ 11.8 µM)
13 | N=C(c1ccc2[nH]c(-c3ccc(Oc4ccc(-c5nc6cc(C(=N)N7CCCC7)ccc6[nH]5)cc4)cc3)nc2c1)N1CCCC1 | 0.25 (≈ 0.42 µM) | 2 (≈ 3.36 µM) | < 0.06 | 0.5 (≈ 0.841 µM) | 0.12 (≈ 0.202 µM) | 0.5 (≈ 0.841 µM) | < 0.06 | 0.12 (≈ 0.202 µM) | 0.25 (≈ 0.42 µM) | 0.25 (≈ 0.42 µM) | < 0.06 | 0.12 (≈ 0.202 µM) | 4 (≈ 6.73 µM)
14 | CC(C)NC(=N)c1ccc2[nH]c(-c3ccc(Oc4ccc(-c5nc6cc(C(=N)NC(C)C)ccc6[nH]5)c(Cl)c4)cc3)nc2c1 | 0.12 (≈ 0.198 µM) | 4 (≈ 6.61 µM) | ≤ 0.06 | 0.5 (≈ 0.826 µM) | 0.12 (≈ 0.198 µM) | 0.25 (≈ 0.413 µM) | ≤ 0.06 | ≤ 0.06 | 0.25 (≈ 0.413 µM) | 0.12 (≈ 0.198 µM) | ≤ 0.06 | ≤ 0.06 | 2 (≈ 3.3 µM)
15 | CC(C)NC(=N)c1ccc2[nH]c(-c3ccc(Oc4ccc(-c5nc6cc(C(=N)NC(C)C)ccc6[nH]5)cc4Cl)cc3)nc2c1 | 0.25 (≈ 0.413 µM) | 16 (≈ 26.4 µM) | ≤ 0.06 | 0.25 (≈ 0.413 µM) | 0.12 (≈ 0.198 µM) | 0.5 (≈ 0.826 µM) | 0.12 (≈ 0.198 µM) | ≤ 0.06 | 0.25 (≈ 0.413 µM) | 0.25 (≈ 0.413 µM) | ≤ 0.06 | ≤ 0.06 | 1 (≈ 1.65 µM)
16 | N=C(c1ccc2[nH]c(-c3ccc(Oc4ccc(-c5nc6cc(C(=N)N7CCCCCC7)ccc6[nH]5)cc4)cc3)nc2c1)N1CCCCCC1 | 0.25 (≈ 0.384 µM) | 4 (≈ 6.15 µM) | 0.12 (≈ 0.184 µM) | 0.25 (≈ 0.384 µM) | 0.5 (≈ 0.768 µM) | 2 (≈ 3.07 µM) | 0.25 (≈ 0.384 µM) | 0.25 (≈ 0.384 µM) | 0.25 (≈ 0.384 µM) | 0.5 (≈ 0.768 µM) | 0.5 (≈ 0.768 µM) | 0.12 (≈ 0.184 µM) | 8 (≈ 12.3 µM)
